The source of these data is patent US20240190821A1, “SULFONAMIDE SUBSTITUTED N-(1H-INDOL-7-YL)BENZENESULFONAMIDES AND USES THEREOF” (Triana Biomedicines, Inc., priority 2021, published 2024).

Each structure is given as a SMILES string. Where two headings read alike, the source gives them in different places.

The target in test [1] is T1, DCAF15-RBM39 ternary complex (Homo sapiens, UniProt Q14498+Q66K64).
T1 construct: (RRM2)
The test is described as follows: Compound-induced DCAF15-RBM39 ternary complex formation, AlphaLISA. It is filed as biochemical. Here is the method: Compound-induced DCAF15-RBM39 ternary complex formation was monitored using AlphaLISA® assays (Perkin Elmer, Waltham, MA). […] 9.8 ul of this protein mixture was then mixed with the compounds in the assay plate and incubated for one hour at room temperature. Reaction mixtures with no compounds added were included as negative controls, while a His-tagged and biotinylated GST protein was included to track general assay performance. […] The beads were then added to the assay plate sequentially with incubation at room temperature for 1-2 hours after each addition.
On the technique in general: Bead proximity is the source of the signal in Alpha formats.

The target in a further test is DCAF15 (Homo sapiens, UniProt Q66K64). The test is described as follows: Binary interaction between compounds and DCAF15, HTRF competition assay. It is filed as binding. Here is the method: DCAF15 interactions with test compounds were monitored using HTRF competition assays (Cisbio, Bedford, MA). […] These two solutions were mixed and incubated for 15 min at room temperature. 9.8 ul of the tracer solution and 10 ul of the DCAF15/mAb Anti-6His-Eu cryptate Gold mixture were added sequentially to each well in the assay plate. Reaction mixtures with no DCAF15 added were included as […] controls. […] Binding was estimated based on ratiometric analysis and titration curves were generated in GraphPad Prism (7.00, GraphPad, La Jolla, CA).

[2] abbreviates: AlphaLISA, His-tagged DCAF15 complex and biotin-carrying RBM39, read-out: Ternary-RBM39 (RRM2) EC50.
[3] abbreviates: HTRF competition with Alexa Fluor 647 tracer, His-tagged DCAF15 complex, read-out: DCAF15 IC50.

DCAF15, sequence (Q66K64 whole entry): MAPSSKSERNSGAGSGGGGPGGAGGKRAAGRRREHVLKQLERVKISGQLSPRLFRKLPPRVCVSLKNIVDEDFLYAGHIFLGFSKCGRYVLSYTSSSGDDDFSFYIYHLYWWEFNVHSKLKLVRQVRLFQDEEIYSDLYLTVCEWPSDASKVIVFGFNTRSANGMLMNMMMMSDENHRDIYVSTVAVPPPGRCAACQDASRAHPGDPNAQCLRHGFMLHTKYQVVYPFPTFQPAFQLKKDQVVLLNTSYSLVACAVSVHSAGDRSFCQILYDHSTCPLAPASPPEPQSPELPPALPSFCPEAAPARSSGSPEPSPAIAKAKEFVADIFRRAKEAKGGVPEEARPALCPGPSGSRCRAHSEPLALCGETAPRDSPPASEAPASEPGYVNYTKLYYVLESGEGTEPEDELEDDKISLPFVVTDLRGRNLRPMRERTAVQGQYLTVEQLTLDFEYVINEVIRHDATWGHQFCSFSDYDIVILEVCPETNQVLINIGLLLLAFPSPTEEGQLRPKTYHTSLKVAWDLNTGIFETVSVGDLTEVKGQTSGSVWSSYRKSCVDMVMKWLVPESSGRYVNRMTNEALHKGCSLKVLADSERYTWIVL
DCAF15, sequence (Q16531 whole entry partner): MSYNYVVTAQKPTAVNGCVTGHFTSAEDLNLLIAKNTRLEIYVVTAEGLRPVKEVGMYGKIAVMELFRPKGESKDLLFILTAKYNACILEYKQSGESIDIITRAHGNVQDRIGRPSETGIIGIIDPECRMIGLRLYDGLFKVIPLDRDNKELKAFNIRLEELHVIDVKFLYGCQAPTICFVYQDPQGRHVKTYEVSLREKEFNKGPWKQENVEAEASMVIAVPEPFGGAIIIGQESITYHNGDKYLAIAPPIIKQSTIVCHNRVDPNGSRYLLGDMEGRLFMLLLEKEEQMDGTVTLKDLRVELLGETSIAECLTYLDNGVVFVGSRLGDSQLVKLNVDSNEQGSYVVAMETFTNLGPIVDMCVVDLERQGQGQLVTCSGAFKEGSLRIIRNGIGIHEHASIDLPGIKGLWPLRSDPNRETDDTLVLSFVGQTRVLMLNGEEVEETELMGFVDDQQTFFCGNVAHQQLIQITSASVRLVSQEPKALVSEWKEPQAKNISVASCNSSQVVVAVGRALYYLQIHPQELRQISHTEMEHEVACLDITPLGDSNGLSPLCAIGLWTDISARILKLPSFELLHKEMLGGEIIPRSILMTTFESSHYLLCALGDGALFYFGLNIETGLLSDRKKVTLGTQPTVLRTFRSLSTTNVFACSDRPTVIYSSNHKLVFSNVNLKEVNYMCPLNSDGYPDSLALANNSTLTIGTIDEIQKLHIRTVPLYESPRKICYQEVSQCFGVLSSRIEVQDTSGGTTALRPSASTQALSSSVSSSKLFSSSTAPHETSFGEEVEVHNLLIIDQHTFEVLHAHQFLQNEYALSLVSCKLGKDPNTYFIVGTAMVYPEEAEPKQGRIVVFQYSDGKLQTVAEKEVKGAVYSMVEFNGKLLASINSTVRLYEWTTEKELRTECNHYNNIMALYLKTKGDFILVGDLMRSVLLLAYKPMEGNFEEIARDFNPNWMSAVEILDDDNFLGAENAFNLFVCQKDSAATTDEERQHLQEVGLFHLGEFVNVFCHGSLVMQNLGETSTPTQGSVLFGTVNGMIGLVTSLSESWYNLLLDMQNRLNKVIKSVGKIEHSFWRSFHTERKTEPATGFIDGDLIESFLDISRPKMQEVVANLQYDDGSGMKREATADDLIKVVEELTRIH
T1 sequence (Q66K64 whole entry): as the sequence (Q66K64 whole entry) above
T1 sequence (Q14498 250-328 limits assumed): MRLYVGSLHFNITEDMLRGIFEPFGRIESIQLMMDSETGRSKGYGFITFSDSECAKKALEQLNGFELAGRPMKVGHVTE
T1 sequence (Q16531 whole entry partner): as the sequence (Q16531 whole entry partner) above

Broadly, the EC50 is the concentration at which the effect is half-maximal. In general, IC50 refers to the concentration that gives 50% inhibition. Turning to `CCCN(c1ccc(S(=O)(=O)Nc2ccc(Cl)c3c(Cl)c[nH]c23)cc1)S(=O)(=O)N1CCN(C)CC1` [Compound 66, N-(4-(N-(3,4-dichloro-1H-indol-7-yl)sulfamoyl)phenyl)-4-methyl-N-propylpiperazine-1-sulfonamide], in test [1] (setting [2]), the EC50 was < 1 µM. Moreover, the IC50 on DCAF15 (setting [3]) was < 5 µM.
`CCCN(c1ccc(S(=O)(=O)Nc2ccc(Cl)c3c(Cl)c[nH]c23)cc1)S(=O)(=O)C1CCNCC1` [Compound 63, N-(4-(N-(3,4-dichloro-1H-indol-7-yl)sulfamoyl)phenyl)-N-propylpiperidine-4-sulfonamide]: the EC50 in test [1] (setting [2]) is < 1 µM. Further, the IC50 at DCAF15 (setting [3]) was < 5 µM.
As for `CCC(NS(=O)(=O)c1ccc(S(=O)(=O)Nc2ccc(Cl)c3c(Cl)c[nH]c23)cc1)c1ccc2c(c1)OCCO2` (centres unmarked) [Compound 14, N1-(3,4-dichloro-1H-indol-7-yl)-N^4-(1-(2,3-dihydrobenzo[b][1, 4]dioxin-6-yl)propyl)benzene-1,4-disulfonamide], the EC50 in test [1] (setting [2]) was < 20 µM. Also, at DCAF15 (setting [3]), the IC50 was < 20 µM.
For `O=S(=O)(F)c1ccc(S(=O)(=O)Nc2ccc(Cl)c3c(Cl)c[nH]c23)cc1` [Compound 72, 4-(N-(3,4-dichloro-1H-indol-7-yl)sulfamoyl)benzenesulfonyl fluoride], in test [1], the EC50 is < 1 µM. Besides, on DCAF15, the IC50 is < 20 µM.
Regarding `CCCC1CNCCN1S(=O)(=O)c1ccc(S(=O)(=O)Nc2ccc(Cl)c3c(Cl)c[nH]c23)cc1` (centres unmarked) [Compound 47, N-(3,4-dichloro-1H-indol-7-yl)-4-((2-propylpiperazin-1-yl)sulfonyl)benzenesulfonamide], the EC50 in test [1] (setting [2]) is < 1 µM. Besides, the IC50 on DCAF15 (setting [3]) is < 5 µM.
As to `O=S(=O)(Nc1ccc(Cl)c2c(Cl)c[nH]c12)c1ccc(C2(N3CCNCC3)CC2)cc1` [Compound 59, N-(3,4-dichloro-1H-indol-7-yl)-4-(1-(piperazin-1-yl)cyclopropyl) benzenesulfonamide], the EC50 in test [1] (setting [2]) is < 1 µM. In addition, at DCAF15 (setting [3]), the IC50 is < 5 µM.
The like results for `COCCOCCCNS(=O)(=O)c1ccc(S(=O)(=O)Nc2ccc(Cl)c3c(Cl)c[nH]c23)cc1` [Compound 7, N^1-(3,4-dichloro-1H-indol-7-yl)-N^4-(3-(2-methoxyethoxy)propyl)benzene-1,4-disulfonamide] were, in that order, < 5 µM and < 20 µM.
As for `N#Cc1ccc(NS(=O)(=O)c2ccc(S(=O)(=O)N3CCNCC3)cc2)c2[nH]cc(Cl)c12` [Compound 88, N-(3-chloro-4-cyano-1H-indol-7-yl)-4-(piperazin-1-ylsulfonyl)benzenesulfonamide], the EC50 in test [1] (setting [2]) was < 1 µM. Also, on DCAF15 (setting [3]), the IC50 is < 20 µM.
Turning to `O=S(=O)(Nc1ccc(Cl)c2c(Cl)c[nH]c12)c1ccc(S(=O)(=O)N2CCCNCC2)cc1` [Compound 52, 4-((1,4-diazepan-1-yl)sulfonyl)-N-(3,4-dichloro-1H-indol-7-yl)benzene sulfonamide], the EC50 in test [1] (setting [2]) is < 1 µM. Moreover, the IC50 at DCAF15 (setting [3]) is < 5 µM.
In the case of `COc1cccc(Oc2ccc(CNS(=O)(=O)c3ccc(S(=O)(=O)Nc4ccc(Cl)c5c(Cl)c[nH]c45)cc3)cn2)c1` [Compound 17, N^1-(3,4-dichloro-1H-indol-7-yl)-N^4-((6-(3-methoxyphenoxy)pyridin-3-yl)methyl)benzene-1,4-disulfonamide], the EC50 in test [1] (setting [2]) is < 20 µM. For the same compound, the IC50 at DCAF15 (setting [3]) is < 20 µM.
In the case of `Cc1ccc(NS(=O)(=O)c2ccc(S(=O)(=O)N3CCC(N(C)C)C3)cc2)c2[nH]cc(C#N)c12` (centres unmarked) [Compound 80, N-(3-cyano-4-methyl-1H-indol-7-yl)-4-((3-(dimethylamino)pyrrolidine-1-yl)sulfonyl)benzenesulfonamide], the EC50 in test [1] (setting [2]) was < 1 µM. In addition, the IC50 on DCAF15 (setting [3]) is < 20 µM.
In the case of `O=S(=O)(Nc1ccc(Cl)c2c(Cl)c[nH]c12)c1ccc(S(=O)(=O)N2CCc3[nH]c(-c4ccccc4)nc3C2)cc1` [Compound 54, N-(3,4-dichloro-1H-indol-7-yl)-4-((2-phenyl-1,4,6,7-tetrahydro-5H-imidazo[4,5-c]pyridin-5-yl)sulfonyl) benzene sulfonamide], the EC50 in test [1] (setting [2]) was < 5 µM. At DCAF15 (setting [3]), the IC50 is < 100 µM.
The like results for `O=C1CCC(NS(=O)(=O)c2ccc(S(=O)(=O)Nc3ccc(Cl)c4c(Cl)c[nH]c34)c(F)c2)CN1` (centres unmarked) [compound 105] were, in that order, < 20 µM and < 20 µM.
The like results for `O=S(=O)(NCCCOCc1ccccc1)c1ccc(S(=O)(=O)Nc2ccc(Cl)c3c(Cl)c[nH]c23)cc1` [Compound 5, N^1-(3-(benzyloxy)propyl)-N^4-(3,4-dichloro-1H-indol-7-yl)benzene-1,4-disulfonamide] were, in that order, < 20 µM and < 100 µM.
Consider `O=S(=O)(NCC1CCN(CCCc2ccccc2)CC1)c1ccc(S(=O)(=O)Nc2ccc(Cl)c3c(Cl)c[nH]c23)cc1` [Compound 10, N^1-(3,4-dichloro-1H-indol-7-yl)-N^4-((1-(3-phenylpropyl)piperidin-4-yl)methyl)benzene-1,4-disulfonamide], for which the EC50 in test [1] (setting [2]) is < 1 µM. Also, the IC50 on DCAF15 (setting [3]) is < 5 µM.
For the compound `O=S(=O)(Nc1ccc(Cl)c2c(Cl)c[nH]c12)c1ccc(S(=O)(=O)C2CCNCC2)cc1` [Compound 57, N-(3,4-dichloro-1H-indol-7-yl)-4-(piperidin-4-ylsulfonyl)benzene sulfonamide], in test [1] (setting [2]), the EC50 is < 1 µM. For the same compound, the IC50 on DCAF15 (setting [3]) is < 5 µM.
The like results for `O=S(=O)(Nc1ccc(Cl)c2cc[nH]c12)c1ccc(S(=O)(=O)N2CCNCC2)cc1` [Compound 87, N-(4-chloro-1H-indol-7-yl)-4-(piperazin-1-ylsulfonyl)benzenesulfonamide] were, in that order, < 5 µM and < 20 µM.
The like results for `CC(C)C(=O)Nc1cccc(CNS(=O)(=O)c2ccc(S(=O)(=O)Nc3ccc(Cl)c4c(Cl)c[nH]c34)cc2)c1` [Compound 13, N-(3-(((4-(N-(3,4-dichloro-1H-indol-7-yl)sulfamoyl)phenyl)sulfonamido)methyl)phenyl) isobutyramide] were, in that order, < 20 µM and < 20 µM.
`Cc1ccc(NS(=O)(=O)c2ccc(S(=O)(=O)N3CCN4CCCC4C3)cc2)c2[nH]cc(C#N)c12` (centres unmarked) [Compound 91, N-(3-cyano-4-methyl-1H-indol-7-yl)-4-((hexahydropyrrolo[1,2-a]pyrazin-2(1H)-yl)sulfonyl)benzenesulfonamide]: the EC50 in test [1] (setting [2]) is < 1 µM. Further, the IC50 at DCAF15 (setting [3]) is < 100 µM.
As for `O=C(CCCNS(=O)(=O)c1ccc(S(=O)(=O)Nc2ccc(Cl)c3c(Cl)c[nH]c23)cc1)N1CCCC1` [Compound 27, N^1-(3,4-dichloro-1H-indol-7-yl)-N^4-(4-oxo-4-(pyrrolidin-1-yl)butyl)benzene-1,4-disulfonamide], the EC50 in test [1] (setting [2]) was < 1 µM. The IC50 at DCAF15 (setting [3]) is < 5 µM.
As to `Cc1ccc(NS(=O)(=O)c2ccc(S(=O)(=O)N(C)C3CCNCC3)cc2)c2[nH]cc(C#N)c12` [Compound 78, N^1-(3-cyano-4-methyl-1H-indol-7-yl)-N^4-methyl-N^4-(piperidin-4-yl) benzene-1,4-disulfonamide], the EC50 in test [1] (setting [2]) is < 1 µM. Further, on DCAF15 (setting [3]), the IC50 was < 5 µM.
With `Cc1ccc(NS(=O)(=O)c2ccc(S(=O)(=O)N3C[C@H]4C[C@@H](C3)N4)cc2)c2[nH]cc(C#N)c12` [Compound 94, 4-(((1R,5S)-3,6-diazabicyclo[3.1.1]heptan-3-yl)sulfonyl)-N-(3-cyano-4-methyl-1H-indol-7-yl)benzenesulfonamide], the EC50 in test [1] (setting [2]) is < 1 µM. Also, the IC50 on DCAF15 (setting [3]) was < 20 µM.
For `O=S(=O)(Nc1ccc(Cl)c2c(Cl)c[nH]c12)c1cccc(Br)c1` [Compound 76, 3-bromo-N-(3,4-dichloro-1H-indol-7-yl)benzenesulfonamide], the EC50 in test [1] (setting [2]) was < 5 µM. Besides, the IC50 on DCAF15 (setting [3]) is < 20 µM.
Regarding `CN1CC(NS(=O)(=O)c2ccc(S(=O)(=O)Nc3ccc(Cl)c4c(Cl)c[nH]c34)cc2)CCC1=O` (centres unmarked) [Compound 32, N^1-(3,4-dichloro-1H-indol-7-yl)-N^4-(1-methyl-6-oxopiperidin-3-yl)benzene-1,4-disulfonamide], the EC50 in test [1] (setting [2]) was < 1 µM. Moreover, the IC50 at DCAF15 (setting [3]) is < 5 µM.
For the compound `O=S(=O)(Nc1ccc(Cl)c2c(Cl)c[nH]c12)c1ccc(C2(N3CCNCC3)COC2)cc1` [Compound 60, N-(3,4-dichloro-1H-indol-7-yl)-4-(3-(piperazin-1-yl)oxetan-3-yl)benzenesulfonamide], the 50% effective concentration (EC50) in test [1] (setting [2]) is < 1 µM. The IC50 on DCAF15 (setting [3]) is < 5 µM.
As to `CCCN(C(=O)CN)c1ccc(S(=O)(=O)Nc2ccc(Cl)c3c(Cl)c[nH]c23)cc1` [compound 131], the EC50 in test [1] (setting [2]) is < 1 µM. Further, the IC50 at DCAF15 (setting [3]) was < 5 µM.
Turning to `Cn1cc(-c2ccc(S(=O)(=O)Nc3ccc(Cl)c4c(Cl)c[nH]c34)cc2)cn1` [Compound 61, N-(3,4-dichloro-1H-indol-7-yl)-4-(1-methyl-1H-pyrazol-4-yl)benzenesulfonamide], in test [1] (setting [2]), the EC50 was < 5 µM. In addition, the 50% inhibitory concentration (IC50) at DCAF15 (setting [3]) is < 5 µM.
Take `O=C1CCC(NS(=O)(=O)c2ccc(S(=O)(=O)Nc3ccc(Cl)c4c(Cl)c[nH]c34)cc2)CN1` (centres unmarked) [Compound 31, N^1-(3,4-dichloro-1H-indol-7-yl)-N^4-(6-oxopiperidin-3-yl)benzene-1,4-disulfonamide]: the EC50 in test [1] (setting [2]) was < 1 µM. Further, the IC50 on DCAF15 (setting [3]) is < 5 µM.
